Data as given in US8354441B2, “Oxazoline derivatives” (Hoffmann-La Roche Inc., priority 2009, dated 2013).

What was measured:
mouse TAAR1 = target: T1, mouse TAAR1 (Mus musculus, UniProt Q923Y8); experiment: TAAR1 radioligand binding with [3H]-rac-2-(1,2,3,4-tetrahydro-1-naphthyl)-2-imidazoline, membranes of stably transfected HEK293 cells; conditions: first value of the cell, read-out: Ki (μM) mouse/rat: mouse
T1 construct: expressed in transfected cells; host or cells: HEK293 (ATCC # CRL-1573), stably transfected with pIRESneo2 expression plasmid
T1 sequence (Q923Y8 whole entry): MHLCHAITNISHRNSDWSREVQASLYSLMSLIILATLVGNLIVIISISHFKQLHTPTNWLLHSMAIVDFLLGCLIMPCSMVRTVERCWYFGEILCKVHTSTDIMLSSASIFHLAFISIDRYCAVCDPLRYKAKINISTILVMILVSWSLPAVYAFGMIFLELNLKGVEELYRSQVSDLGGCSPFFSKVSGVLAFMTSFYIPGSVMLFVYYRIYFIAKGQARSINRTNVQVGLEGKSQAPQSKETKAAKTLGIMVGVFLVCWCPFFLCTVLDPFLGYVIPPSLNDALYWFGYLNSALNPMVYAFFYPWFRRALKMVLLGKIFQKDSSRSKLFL
Procedure, shortened: (§1)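 Competition binding: competitors spanning 10 pM–30 μM displace 60 nM [3H]-rac-2-(1,2,3,4-tetrahydro-1-naphthyl)-2-imidazoline from stably transfected HEK293 membranes (mouse or rat receptor), 30 min, 4 °C, pH 7.0 buffer with Mg2+/Ca2+. Bound label counted after GF/C filtration; 10 μM unlabelled ligand defines non-specific binding.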

rat TAAR1 = target: T2, rat TAAR1 (Rattus norvegicus, UniProt Q923Y9); experiment: as above; conditions: second value of the cell, read-out: Ki (μM) mouse/rat: rat
T2 construct: expressed in transfected cells; host or cells: HEK293 (ATCC # CRL-1573), stably transfected with pIRESneo2 expression plasmid
T2 sequence (Q923Y9 whole entry): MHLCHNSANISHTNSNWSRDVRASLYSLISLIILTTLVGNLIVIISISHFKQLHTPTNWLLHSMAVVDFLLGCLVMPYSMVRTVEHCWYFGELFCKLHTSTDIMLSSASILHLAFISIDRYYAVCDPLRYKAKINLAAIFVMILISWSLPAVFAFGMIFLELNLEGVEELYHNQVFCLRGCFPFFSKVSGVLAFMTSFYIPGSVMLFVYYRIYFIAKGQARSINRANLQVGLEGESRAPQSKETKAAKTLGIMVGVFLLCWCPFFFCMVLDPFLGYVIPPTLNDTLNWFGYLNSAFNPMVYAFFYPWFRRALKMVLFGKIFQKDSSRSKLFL
Procedure, shortened: as §1

## COc1ccc(C(=O)Nc2ccc(CC[C@H]3COC(N)=N3)cc2)nc1 [Example 117, (S)-N-(4-(2-(2-Amino-4,5-dihydrooxazol-4-yl)ethyl)phenyl)-5-methoxypicolinamide]
Mouse TAAR1
  Ki: 0.002 µM
Rat TAAR1
  Ki: 0.0008 µM

## CC(C)c1cc(C(=O)Nc2ccc(CC[C@H]3COC(N)=N3)cc2)ccn1 [Example 198, (S)-N-(4-(2-(2-Amino-4,5-dihydrooxazol-4-yl)ethyl)phenyl)-2-isopropylisonicotinamide]
Mouse TAAR1
  Ki: 0.0036 µM
Rat TAAR1
  Ki: 0.0029 µM

## Cc1ccc(C(=O)Nc2ccc(CC[C@H]3COC(N)=N3)cc2)nc1 [Example 171, (S)-N-(4-(2-(2-Amino-4,5-dihydrooxazol-4-yl)ethyl)phenyl)-5-methylpicolinamide]
Mouse TAAR1
  Ki: 0.0008 µM
Rat TAAR1
  Ki: 0.0011 µM

## COc1cc(Cl)ccc1C(=O)Nc1ccc(CC[C@H]2COC(N)=N2)cc1 [Example 138, (S)-N-(4-(2-(2-Amino-4,5-dihydrooxazol-4-yl)ethyl)phenyl)-4-chloro-2-methoxybenzamide]
Mouse TAAR1
  Ki: 0.0002 µM
Rat TAAR1
  Ki: 0.0002 µM

## NC1=N[C@@H](CCc2ccc(C(=O)Nc3ccc(Cl)cc3)cc2)CO1 [Example 48, 4-[2-((S)-2-Amino-4,5-dihydro-oxazol-4-yl)-ethyl]-N-(4-chloro-phenyl)-benzamide]
Mouse TAAR1
  Ki: 0.001 µM
Rat TAAR1
  Ki: 0.0003 µM

## NC1=N[C@@H](C[C@@H](Oc2ccc(NC(=O)c3ccc(Cl)cc3)cc2)C(F)(F)F)CO1 [Example 150, N-{4-[(R)-1-((S)-2-Amino-4,5-dihydro-oxazol-4-ylmethyl)-2,2,2-trifluoro-ethoxy]-phenyl}-4-chloro-benzamide]
Mouse TAAR1
  Ki: 0.0004 µM
Rat TAAR1
  Ki: 0.0005 µM

## NC1=N[C@@H](CCc2ccc(NC(=O)Nc3cccc(Cl)c3)cc2)CO1 [Example 95, 1-{4-[2-((S)-2-Amino-4,5-dihydro-oxazol-4-yl)-ethyl]-phenyl}-3-(3-chloro-phenyl)-urea]
Mouse TAAR1
  Ki: 0.0001 µM
Rat TAAR1
  Ki: 0.0001 µM

## NC1=N[C@@H](CCc2ccc(NC(=O)c3ccc(C(F)(F)F)cn3)cc2)CO1 [Example 54, 5-Trifluoromethyl-pyridine-2-carboxylic acid {4-[2-((S)-2-amino-4,5-dihydro-oxazol-4-yl)-ethyl]-phenyl}-amide]
Mouse TAAR1
  Ki: 0.0008 µM
Rat TAAR1
  Ki: 0.0019 µM

## NC1=N[C@@H](CCc2ccc(NC(=O)c3ncc(F)cc3F)cc2)CO1 [Example 87, 3,5-Difluoro-pyridine-2-carboxylic acid {4-[2-((S)-2-amino-4,5-dihydro-oxazol-4-yl)-ethyl]-phenyl}-amide]
Mouse TAAR1
  Ki: 0.0057 µM
Rat TAAR1
  Ki: 0.0018 µM

## NC1=N[C@@H](CCc2ccc(NC(=O)c3ccc(Br)nc3)cc2)CO1 [Example 106, N-{4-[2-((S)-2-Amino-4,5-dihydro-oxazol-4-yl)-ethyl]-phenyl}-6-bromo-nicotinamide]
Mouse TAAR1
  Ki: 0.0012 µM
Rat TAAR1
  Ki: 0.0009 µM

## COc1cncc(C(=O)Nc2ccc(CC[C@H]3COC(N)=N3)cc2)n1 [Example 128, (S)-N-(4-(2-(2-Amino-4,5-dihydrooxazol-4-yl)ethyl)phenyl)-6-methoxypyrazine-2-carboxamide]
Mouse TAAR1
  Ki: 0.0079 µM
Rat TAAR1
  Ki: 0.0054 µM

## NC1=N[C@@H](CCc2ccc(NC(=O)c3nccc4ccccc34)cc2)CO1 [Example 93, Isoquinoline-1-carboxylic acid {4-[2-((S)-2-amino-4,5-dihydro-oxazol-4-yl)-ethyl]-phenyl}-amide]
Mouse TAAR1
  Ki: 0.0016 µM
Rat TAAR1
  Ki: 0.0003 µM

## NC1=N[C@@H](CCc2ccc(NC(=O)c3ncc(Cl)cn3)cc2)CO1 [Example 34, 5-Chloro-pyrimidine-2-carboxylic acid {4-[2-((S)-2-amino-4,5-dihydro-oxazol-4-yl)-ethyl]-phenyl}-amide]
Mouse TAAR1
  Ki: 0.0067 µM
Rat TAAR1
  Ki: 0.0035 µM

## CC(C(=O)Nc1ccc(CC[C@H]2COC(N)=N2)cc1)c1cccc(C(F)(F)F)c1 (stereo partly drawn) [Example 81, N-{4-[2-((S)-2-Amino-4,5-dihydro-oxazol-4-yl)-ethyl]-phenyl}-2-(3-trifluoromethyl-phenyl)-propionamide]
Mouse TAAR1
  Ki: 0.001 µM
Rat TAAR1
  Ki: 0.0022 µM

## N#Cc1ccc(C(=O)Nc2ccc(CC[C@H]3COC(N)=N3)cc2)cc1 [Example 59, N-{4-[2-((S)-2-Amino-4,5-dihydro-oxazol-4-yl)-ethyl]-phenyl}-4-cyano-benzamide]
Mouse TAAR1
  Ki: 0.0022 µM
Rat TAAR1
  Ki: 0.0022 µM

## CCc1ccc(C(=O)Nc2ccc(CC[C@H]3COC(N)=N3)cc2)nc1 [Example 178, (S)-N-(4-(2-(2-Amino-4,5-dihydrooxazol-4-yl)ethyl)phenyl)-5-ethylpicolinamide]
Mouse TAAR1
  Ki: 0.0004 µM
Rat TAAR1
  Ki: 0.0004 µM

## NC1=N[C@@H](CCc2ccc(NC(=O)c3ccc(OCC(F)(F)F)nc3)cc2)CO1 [Example 113, N-{4-[2-((S)-2-Amino-4,5-dihydro-oxazol-4-yl)-ethyl]-phenyl}-6-(2,2,2-trifluoro-ethoxy)-nicotinamide]
Mouse TAAR1
  Ki: 0.0006 µM
Rat TAAR1
  Ki: 0.001 µM

## NC1=N[C@@H](CCc2ccc(NC(=O)c3ccc(F)nc3F)cc2)CO1 [Example 110, N-{4-[2-((S)-2-Amino-4,5-dihydro-oxazol-4-yl)-ethyl]-phenyl}-2,6-difluoro-nicotinamide]
Mouse TAAR1
  Ki: 0.0054 µM
Rat TAAR1
  Ki: 0.0048 µM

## COc1ncccc1C(=O)Nc1ccc(CC[C@H]2COC(N)=N2)cc1 [Example 115, N-{4-[2-((S)-2-Amino-4,5-dihydro-oxazol-4-yl)-ethyl]-phenyl}-2-methoxy-nicotinamide]
Mouse TAAR1
  Ki: 0.0029 µM
Rat TAAR1
  Ki: 0.0024 µM

## COCc1ccc(C(=O)Nc2ccc(CC[C@H]3COC(N)=N3)cc2)cc1 [Example 63, N-{4-[2-((S)-2-Amino-4,5-dihydro-oxazol-4-yl)-ethyl]-phenyl}-4-methoxymethyl-benzamide]
Mouse TAAR1
  Ki: 0.0026 µM
Rat TAAR1
  Ki: 0.0013 µM

## COc1ccc(C(=O)Nc2ccc(CC[C@H]3COC(N)=N3)cc2)cn1 [Example 97, N-{4-[2-((S)-2-Amino-4,5-dihydro-oxazol-4-yl)-ethyl]-phenyl}-6-methoxy-nicotinamide]
Mouse TAAR1
  Ki: 0.0018 µM
Rat TAAR1
  Ki: 0.0015 µM

## NC1=N[C@@H](CCc2ccc(NC(=O)c3ccc4ccccc4n3)cc2)CO1 [Example 91, Quinoline-2-carboxylic acid {4-[2-((S)-2-amino-4,5-dihydro-oxazol-4-yl)-ethyl]-phenyl}-amide]
Mouse TAAR1
  Ki: 0.0005 µM
Rat TAAR1
  Ki: 0.0002 µM

## NC1=N[C@@H](CCc2ccc(NC(=O)C3(C(F)(F)F)CC3)cc2)CO1 [Example 52, 1-Trifluoromethyl-cyclopropanecarboxylic acid {4-[2-((S)-2-amino-4,5-dihydro-oxazol-4-yl)-ethyl]-phenyl}-amide]
Mouse TAAR1
  Ki: 0.0073 µM
Rat TAAR1
  Ki: 0.006 µM

## NC1=N[C@@H](CCc2ccc(NC(=O)c3ccc(Cl)cc3F)cc2)CO1 [Example 136, (S)-N-(4-(2-(2-Amino-4,5-dihydrooxazol-4-yl)ethyl)phenyl)-4-chloro-2-fluorobenzamide]
Mouse TAAR1
  Ki: 0.0003 µM
Rat TAAR1
  Ki: 0.0006 µM

## NC1=N[C@@H](CCc2ccc(NC(=O)c3ccn(C(F)F)n3)cc2)CO1 [Example 195, (S)-N-(4-(2-(2-Amino-4,5-dihydrooxazol-4-yl)ethyl)phenyl)-1-(difluoromethyl)-1H-pyrazole-3-carboxamide]
Mouse TAAR1
  Ki: 0.0037 µM
Rat TAAR1
  Ki: 0.0023 µM

## NC1=N[C@@H](CCc2ccc(NC(=O)c3ncoc3C3CC3)cc2)CO1 [Example 214, (S)-N-(4-(2-(2-Amino-4,5-dihydrooxazol-4-yl)ethyl)phenyl)-5-cyclopropyloxazole-4-carboxamide]
Mouse TAAR1
  Ki: 0.0011 µM
Rat TAAR1
  Ki: 0.0028 µM

## NC1=N[C@@H](CCc2ccc(NC(=O)c3cnc(C(F)(F)F)cn3)cc2)CO1 [Example 159, (S)-N-(4-(2-(2-Amino-4,5-dihydrooxazol-4-yl)ethyl)phenyl)-5-(trifluoromethyl)pyrazine-2-carboxamide]
Mouse TAAR1
  Ki: 0.001 µM
Rat TAAR1
  Ki: 0.0024 µM

## NC1=N[C@@H](CCc2ccc(NC(=O)Oc3cccc(C(F)(F)F)c3)cc2)CO1 [Example 149, {4-[2-((S)-2-Amino-4,5-dihydro-oxazol-4-yl)-ethyl]-phenyl}-carbamic acid 3-trifluoromethyl-phenyl ester]
Mouse TAAR1
  Ki: 0.0097 µM
Rat TAAR1
  Ki: 0.0092 µM

## NC1=N[C@@H](CCc2ccc(NC(=O)c3ccc(Cl)s3)cc2)CO1 [Example 169, (S)-N-(4-(2-(2-Amino-4,5-dihydrooxazol-4-yl)ethyl)phenyl)-5-chlorothiophene-2-carboxamide]
Mouse TAAR1
  Ki: 0.0005 µM
Rat TAAR1
  Ki: 0.0001 µM

## NC1=N[C@@H](CCc2ccc(NC(=O)c3cccc(Cl)c3)cc2)CO1 [Example 18, N-{4-[2-((S)-2-Amino-4,5-dihydro-oxazol-4-yl)-ethyl]-phenyl}-3-chloro-benzamide]
Mouse TAAR1
  Ki: 0.0002 µM
Rat TAAR1
  Ki: 0.0002 µM

## NC1=N[C@@H](CCc2ccc(NC(=O)c3ccc(Cl)cc3)cc2)CO1 [Example 9, N-{4-[2-((S)-2-Amino-4,5-dihydro-oxazol-4-yl)-ethyl]-phenyl}-4-chloro-benzamide]
Mouse TAAR1
  Ki: 0.0002 µM
Rat TAAR1
  Ki: 0.0004 µM

## NC1=N[C@@H](CCc2ccc(NC(=O)c3ccc(Cl)cn3)cc2)CO1 [Example 33, 5-Chloro-pyridine-2-carboxylic acid {4-[2-((S)-2-amino-4,5-dihydro-oxazol-4-yl)-ethyl]-phenyl}-amide]
Mouse TAAR1
  Ki: 0.0006 µM
Rat TAAR1
  Ki: 0.001 µM

## NC1=N[C@@H](CCc2ccc(NC(=O)c3ccc(C(F)(F)F)cc3)cc2)CO1 [Example 17, N-{4-[2-((S)-2-Amino-4,5-dihydro-oxazol-4-yl)-ethyl]-phenyl}-4-trifluoromethyl-benzamide]
Mouse TAAR1
  Ki: 0.0002 µM
Rat TAAR1
  Ki: 0.0004 µM

## COC(C(=O)Nc1ccc(CC[C@H]2COC(N)=N2)cc1)c1ccc(Br)cc1 (stereo partly drawn) [Example 73, N-{4-[2-((S)-2-Amino-4,5-dihydro-oxazol-4-yl)-ethyl]-phenyl}-2-(4-bromo-phenyl)-2-methoxy-acetamide]
Mouse TAAR1
  Ki: 0.0026 µM
Rat TAAR1
  Ki: 0.0049 µM

## NC1=N[C@@H](CCc2ccc(NC(=O)c3cccc(F)n3)cc2)CO1 [Example 88, 6-Fluoro-pyridine-2-carboxylic acid {4-[2-((S)-2-amino-4,5-dihydro-oxazol-4-yl)-ethyl]-phenyl}-amide]
Mouse TAAR1
  Ki: 0.0097 µM
Rat TAAR1
  Ki: 0.0014 µM
